Source: patent US10306895B2, “Plant defense signaling peptides and applications thereof” (Academia Sinica, priority 2014, dated 2019)
Ends that are not written are not given here.

Legend:
Pst DC3000 [1] = assay: Pathogen challenge of presprayed Arabidopsis plants; assay type: in vivo, Pseudomonas syringae pv. tomato; conditions: plants sprayed with 100 nM peptide for 2 hours prior to inoculation
Experimental: The infection symptoms were observed 4 days after inoculation. The bacterial numbers were calculated 4 days after inoculation and are represented as log colony-forming units (Log CFU) per g leaf tissue. Data represent the means and SD of three biological samples.
To test the anti-pathogen activity induced by peptides in Arabidopsis, the plants were sprayed with 100 nM AtCAPE1, AtCAPE9, 100 nM flg22 or water, respectively, for 2 hours prior to pathogen challenge.
The bacterial pathogen Pseudomonas syringae pv. tomato DC3000 (Pst DC3000) or Pst DC3000 hrcC^− were grown on King's B (KB) agar medium containing 100 mg/L rifampicin for 2 days at 28° C. Before the challenge, the bacteria were cultured in KB liquid medium at 28° C. with 230 rpm shaking overnight. The bacteria were pelleted by centrifugation and resuspended in 10 mM MgSO4 at A600=0.25 (about 10^8 cfu/ml).

[2] = tested on: Pseudomonas syringae pv. tomato DC3000 (Pst DC3000); assay type: in vivo
Experimental: (a) Changes of the larval sizes after feeding with water or 250 nM CAPE1 treated tomato leaves. The larval weights of thirty larvae were recorded each day. (b) The Pst DC3000 infection phenotypes of the plants presprayed with water or 100 nM CAPE1 peptide for 2 hours (n=3) prior to pathogen inoculation. […] All statistically significant differences between the CAPE1- and water-treated samples are indicated with * (P<0.05) or *** (P<0.001) based on Student's t-test.
(§1) (a) The level of SA induced by CAPE1 and flg22. The excised plants were pretreated with 10 mM phosphate buffer (buffer) or 365 nM CAPE1 or 365 nM flg22 in buffer through the cut stem for 8 hours (n=3). The quantity of SA was quantified by LC-SRM-MS and calculated based on the abundance of spiked SA isotopic standard (d6-SA). (b) The relative expression of WRKY53 and PR-1b were quantified by comparing the expression levels in untreated detached leaves with the detached leaves treated with water, 250 nM CAPE1 or 250 nM flg22 for 2 hours (n=4). The internal control Ubi3 was used for normalization. (c) The Pst DC3000 infection phenotypes for plants presprayed with water, 100 nM CAPE1 or 100 nM flg22 peptide for 2 hours (n=3) prior to the pathogen inoculation. The infection symptoms were observed 4 days after inoculation. […]

Pst DC3000 [3] = conditions: seedlings treated with 50 mM NaCl for 24 hours, with or without 250 nM AtCAPE1 for 6 hours
Experimental: 5 days Arabidopsis seedlings treated with 50 mM NaCl for 24 hours and following the treatment of with or without 250 nM AtCAPE1 for 6 hours. The infection symptoms were observed 4 days after Pst DC3000 inoculation. The bacterial numbers were calculated 7 days after inoculation and represented as log colony-forming units (Log CFU) per g leaf tissue. Data represent the means and SD of three biological samples.
Pst DC3000 or hrcC^− were grown in water- or peptide-treated plants for several days to observe the symptoms and then the bacteria were collected from the leaves and evaluated by bacterial titers according to a method outlined previously (Zimmerli et al., 2000).

[4] = tested on: JA and JA-Ile accumulation; assay: Jasmonate hormone quantitation by LC-MS/MS in excised tomato plants; assay type: in vivo, Solanum lycopersicum (tomato); conditions: 365 nM peptide in buffer through the cut stem of excised plants, 2 and 4 hours
Experimental: The plants treated with 10 mM phosphate buffer (buffer), 365 nM systemin (Sys) or 365 nM CAPE1 in buffer through the cut stem for 2 and 4 hours (n=3). The quantity of JA and JA-Ile were quantified by LC-SRM-MS and calculated by the abundance of spiked standard H2JA. Data represent the means and SD of three independent biological replicates.
To compare the jasmonates induced by the peptides, the excised tomato plants were treated with 10 mM phosphate buffer, 365 nM systemin or 365 nM CAPE1 in buffer through the cut stem for 2 and 4 hours (Schaller et al., 1995; Howe et al., 1996).
After peptide treatment, the metabolites were extracted from leaf tissues for phytohormone quantitation. The extraction procedure was modified from a previously published protocol (Pan et al., 2010). The leaf tissues (about 0.6 g fresh weight) were ground into powder under liquid nitrogen and transferred to a 50 ml screw-cap tube. The frozen leaf powder was dissolved in 6 ml extraction solvent and d6-SA (3 ng to 0.6 g leaf tissue) and H2JA (15 ng to 0.6 g leaf tissue) were added as internal standards. The samples were extracted by shaking at a speed of 100 rpm at 4° C. for 30 minutes and then 12 ml dichloromethane was added to each sample and shaken at 100 rpm at 4° C. for 30 minutes. The samples were centrifuged at 13,000×g at 4° C. for 5 minutes, and two phases were formed. […]

[5] = tested on: PR-1b and WRKY53 gene expression; assay: qRT-PCR of defense genes in tomato leaves pretreated with cleavage motif peptide and challenged with Pst DC3000 hrcC-; assay type: in vivo; conditions: 1 μM CNYDPV pretreatment for 2 h, then Pst DC3000 hrcC- challenge for 2 h
Experimental: Relative expression levels of PR-1b and WRKY53 were analyzed by qRT-PCR 2 h after challenge of 10^7 cfu/mL Pst DC3000 hrcC^− or buffer in tomato leaves, which was pretreated with water, 100 nM CAPE1 or 1 μM CNYDPV for 2 h, respectively.
Quantitative real-time PCR (qRT-PCR) was used to validate the expression of some specific genes. Three biological replicates were used for qRT-PCR analyses. The qRT-PCR was performed using SYBR Green reagent and ABI 7500 Real Time PCR systems (Foster City, Calif.). The PCR cycling steps were 50° C. for 2 min and 94° C. for 10 min for initial steps and followed by 95° C. for 15 s and 60° C. for 1 min for 40 cycles. The gene expressions across different samples were normalized with internal control EF-1α or Ubi3. The melting curve was used to verify the specificity of the PCR product.

[6] = tested on: WRKY53 and PR-1b gene expression; assay: qRT-PCR of WRKY53 and PR-1b in detached tomato leaves; assay type: in vivo, Solanum lycopersicum (tomato); conditions: 250 nM peptide, 2 hours
Experimental: (a) The level of SA induced by CAPE1 and flg22. The excised plants were pretreated with 10 mM phosphate buffer (buffer) or 365 nM CAPE1 or 365 nM flg22 in buffer through the cut stem for 8 hours (n=3). The quantity of SA was quantified by LC-SRM-MS and calculated based on the abundance of spiked SA isotopic standard (d6-SA). (b) The relative expression of WRKY53 and PR-1b were quantified by comparing the expression levels in untreated detached leaves with the detached leaves treated with water, 250 nM CAPE1 or 250 nM flg22 for 2 hours (n=4). The internal control Ubi3 was used for normalization. (c) The Pst DC3000 infection phenotypes for plants presprayed with water, 100 nM CAPE1 or 100 nM flg22 peptide for 2 hours (n=3) prior to the pathogen inoculation. The infection symptoms were observed 4 days after inoculation. […] A statistically significant difference compared with the correspondingly treated water (or buffer) samples is indicated with ** (P<0.01) or *** (P<0.001) based on Student's t-test.
Quantitative real-time PCR (qRT-PCR) was used to validate the expression of some specific genes. Three biological replicates were used for qRT-PCR analyses. The qRT-PCR was performed using SYBR Green reagent and ABI 7500 Real Time PCR systems (Foster City, Calif.). […]

[7] = tested on: WRKY53, PR-1b, Adi3 and ERF5 gene expression; conditions: 30 minute or 6 hours treatment of flg22 on tomato; cited from earlier work
SA accumulation = assay: Salicylic acid quantitation by LC-MS/MS in excised tomato plants; assay type: in vivo, Solanum lycopersicum (tomato); conditions: 365 nM peptide supplied to excised plants through cut stem, 8 hours
Experimental: as §1, with “normalization.” for “normalization. (c) The Pst DC3000 infection phenotypes for plants presprayed with water, 100 nM CAPE1 or 100 nM flg22 peptide for 2 hours (n=3) prior to the pathogen inoculation. The infection symptoms were observed 4 days after inoculation.”
After peptide treatment, the metabolites were extracted from leaf tissues for phytohormone quantitation. […] The dried samples were dissolved in 300 μl methanol, mixed well and centrifuged at 10,000×g at 4° C. for 5 minutes and then the supernatant was transferred to the sample vial for targeted quantitation analysis using LC-MS/MS.
For phytohormone quantitation, a linear ion trap-orbitrap mass spectrometer (Orbitrap Elite, Thermo Fisher Scientific, Bremen, Germany) coupled online with a UHPLC system (ACQUITY UPLC, Waters, Millford, Mass.) was used. […] The fragmentation reactions of m/z 137.02 to 93.03 for SA, 209.12 to 59.01 for JA, 322.20 to 130.09 for JA-Ile, 141.05 to 97.06 for d6-SA and 211.13 to 59.01 for H2JA were selected for quantitation. […]

## PAGNYIGARPY (listed as Arabidopsis thaliana) [AtCAPE1]
Pst DC3000 [1]
  immunity against Pst DC3000 infection in Arabidopsis: increase immunity against Pst DC3000 infection

## PVGNWIGQRPY [CAPE1, PVGNWIGQRPY]
[2]; in vivo
  induction of the hypersensitive response (HR): without induction of the HR

## [Cl-].[Na+] [salt, NaCl]
Pst DC3000 [3]
  anti-pathogen activity in Arabidopsis after salt treatment: enhance the anti-pathogen activity

## AVQSKPPSKRDPPKMQTD [systemin]
[4]
  induction of JA and JA-Ile: significantly induced by treatment for 2 hours

## CNYDPV
[5]
  defense gene expression (PR-1b and WRKY53) in tomato: decreased

## PRGNYVNEKPY (listed as Arabidopsis thaliana) [AtCAPE9]
Pst DC3000 [1]
  immunity against Pst DC3000 infection in Arabidopsis: increase immunity against Pst DC3000 infection

## QRLSTGSRINSAKDDAAGLQIA [flg22]
[6]
  WRKY53 expression: highly induced
[7]
  PR-1b, Adi3 and ERF5 induction (public RNA-seq data): could not be significantly induced
  WRKY53 induction (public RNA-seq data): could be induced
[2]; plants sprayed with 100 nM peptide for 2 hours prior to inoculation
  plant resistance to Pst DC3000 infection in tomato: resulted in plant resistance to Pst DC3000 infection
SA accumulation
  induction of SA: significantly induced SA
